{"source": "patent US20070037887A1", "about": "“Blockade of mtor to prevent a hormonal adaptive response” (University of Virginia Patent Foundation, priority 2003, published 2007)", "key": {"MCF-7 cells": {"system": "MCF-7 cells", "test": "[3H] thymidine incorporation into DNA, MCF-7 cells", "assay_type": "cell-based, human", "experimental": "FIGS. 5A & 5B represent the effect of FTS on DNA synthesis in MCF-7 (FIG. 5A) and LTED (FIG. 5B) cells. One hundred thousand cells were plated into each well of 24-well plates. Two days later, the cells were re-fed with IMEM containing 5% DCC-FBS. After another two days, cells were treated in quadruplicate with the compounds indicated for 18 hours. [^3H] thymidine (1 μCi/well) was added during the last 2 h of incubation. [^3H] thymidine incorporated into DNA was normalized by protein content.\nThe inhibitory effect of FTS on cell growth may be the result of inhibition of cellular proliferation, induction of apoptosis, or both. To determine the mechanism by which FTS inhibits cell growth, FTS's effect on DNA synthesis and apoptosis was investigated. […] Estradiol (10^−10 M) increased [^3H] thymidine incorporation by 2.6 fold compared to the control level in MCF-7 cells."}, "[1]": {"system": "ERK1/2 MAP kinase, Akt, p70 S6 kinase, PHAS-I phosphorylation in MCF-7 cells", "test": "Western analysis of serum-stimulated kinase phosphorylation, MCF-7 cells", "assay_type": "cell-based, human", "conditions": "FTS 24 h", "experimental": "FIGS. 7A-7D represent data showing the effect of FTS on serum-stimulated activation of MAP kinase, PI3 kinase, and mTOR. Subconfluent MCF-7 and LTED cells grown in 60 mm dishes were treated with FTS in their culture media for 24 h. Cells were then harvested and cell lysate prepared. Phosphorylation of ERK1/2 MAP kinase (FIG. 7A), Akt at Ser^473 (FIG. 7B), p70 S6 kinase at Thr^389 (FIG. 7C), and PHAS-I at Ser^65 (FIG. 7D) was detected by Western analysis using specific antibodies and quantitated by densitometry scanning.\nThe levels of phosphorylated ERK1/2 MAPK, Akt (Ser^473), p70S6K (Thr^389) and PHAS-1 (Ser^65) were consistently elevated in LTED cells compared to those in wild type MCF-7 cells as indicated by Western blot analysis using specific antibodies against phosphorylated ERK 1/2 (FIG. 7A), Akt (FIG. 7B), p70S6 kinase (FIG. 7C) and PHAS-1 (FIG. 7D). […] (FIGS. 7C & 7D)."}, "[2]": {"system": "ERK1/2, Akt, p70S6K, PHAS-1 phosphorylation in LTED cells", "test": "IGF-1 induced activation of MAP kinase, PI3 kinase and mTOR in LTED cells (Western)", "assay_type": "cell-based, human", "experimental": "FIG. 9. represents data showing the effect of FTS on IGF-1 induced activation of MAP kinase, PI3 kinase, and mTOR in LTED cells. Subconfluent LTED cells grown in 60 mm dishes were serum starved for 24 h, pretreated with FTS (100 μM) or LY 294002 (LY, 20 μM) for 10, 30 or 60 min before addition of IGF-1 (20 ng/ml for 10 min). Cells were then harvested and cell lysates prepared. Phosphorylated and total kinases were detected by Western analysis using specific antibodies.\nLTED cells were pretreated with FTS (100 μM) or LY 294002 (20 μM) for 10, 30, and 60 min and then IGF-1 (20 ng/ml) was added for 10 min. […] The inhibitory effect was seen as early as 10 minutes of treatment whereas FTS induced no effect. In marked contrast, both FTS and Ly inhibited the phosphorylation of 4E BP-1, particularly at the 60 minute time point. (FIG. 9)."}, "mTOR-raptor complex": {"molecular_target": "T1, mTOR-raptor complex (Homo sapiens, UniProt P42345+Q8N122)", "T1 construct": "expressed in transfected cells; host or cells: 293T", "test": "Coimmunoprecipitation of raptor with mTOR from 293T cells incubated with compound", "assay_type": "cell-based", "conditions": "nontransfected 293T cells", "experimental": "FIG. 11A & 11B represent data showing FTS inhibits PHAS-I phosphorylation and promotes dissociation of the mTOR-raptor complex in 293T cells. 293T cells were transfected with pcDNA3AU1-mTOR, pcDNA33HARaptor, pcDNA33HA-mLST8, and pCMV-Tag3APHAS-I (FIG. 11A). After 18 h the cells were incubated for 1 h with increasing concentrations of FTS before extracts were prepared. A sample of each extract was subjected to SDS-PAGE and immunoblotted to detect PHAS-I or PThr^36/45. AU1-mTOR was also immunoprecipitated from each extract, and immune complexes were subjected to SDSPAGE and immunoblotted with mTAb2, to detect mTOR, and with anti-HA antibodies, to detect HA-mLST8 and HA-raptor. Nontransfected 293T cells were incubated with increasing concentrations of FTS for 1 h before extracts were prepared. mTOR was immunoprecipitated with mTAb1, and samples were subjected to SDS-PAGE.\nFIGS. 12A & 12B represent data showing the effects of incubating cells with increasing concentrations of FTS and GTS on mTOR activity and mTOR association with raptor and mLST8. AU1-mTOR, HA-raptor, and HAmLST8 were overexpressed in 293T cells. The cells were then incubated for 1 h with increasing concentrations of FTS (●, ▴, ▪) or GTS (∘, Δ, □) before extracts were prepared. Immunoprecipitations were then conducted with anti-AU1 antibodies. mTOR kinase activity (●, ∘) was determined by measuring ^32P incorporation into [His^6]PHAS-I in immune complex kinases assays performed with [γ-^32P]ATP. The relative amounts of HA-raptor (▴, Δ) and HA-mLST8 (▪, □) that coimmunoprecipitated with AU1-mTOR were determined after immunoblotting with anti-HA antibodies. The results (mean values±S.E. from 3 experiments) are expressed as percentages of the mTOR activity (FIG. 12A) or coimmunoprecipitating proteins (FIG. 12B) from samples incubated without FTS or GTS, and have been corrected for the amounts of AU1-mTOR immunoprecipitated.\nTo investigate further the inhibitory effects of FTS on mTOR signaling, the effect of the drug on the association of mTOR, raptor, and mLST8 was determined. AU1-mTOR and HA-tagged forms of raptor and mLST8 were overexpressed in 293T cells, which were then incubated with increasing concentrations of FTS before AU1-mTOR was immunoprecipitated with anti-AU1 antibodies. Immunoblots were prepared with anti-HA antibodies to assess the relative amounts of HA-raptor and HA-mLST8 that coimmunoprecipitated with AU 1-mTOR (FIG. 11A).\nResults obtained with overexpressed proteins are not necessarily representative of responses of endogenous proteins. Therefore, experiments were conducted to investigate the effect FTS on the endogenous TORC1 in nontransfected cells. […]"}, "[3]": {"conditions": "doses needed to inhibit tumor growth; cited from earlier work"}}, "data": [{"molecule": "CC(C)=CCC/C(C)=C/CC/C(C)=C/CSc1ccccc1C(=O)O", "note": "[FTS, farnesylthiosalicylic acid]", "values": [{"measurement": "[3H] thymidine incorporated into DNA", "setting": "MCF-7 cells; FTS 75 μM, 18 hours", "value": "significantly reduced"}, {"measurement": "estradiol-induced increase of [3H] thymidine incorporation", "setting": "MCF-7 cells; FTS with estradiol 10^−10 M", "value": "completely blocked"}, {"measurement": "fall of phosphorylated ERK1/2 and 4E BP 1", "setting": "[1]", "value": "approximately 50%"}, {"measurement": "p70 S 6 kinase and phospho-AKT", "setting": "[1]", "value": "inconsistent decrements"}, {"measurement": "IGF-1 induced ERK1/2 phosphorylation", "setting": "[2]; FTS 100 μM or LY 294002 20 μM for 10, 30, 60 min, IGF-1 20 ng/ml 10 min", "value": "Neither FTS nor LY 294002 inhibited"}, {"measurement": "phosphorylation of 4E BP-1", "setting": "[2]; FTS 100 μM or LY 294002 20 μM, particularly at 60 minute time point", "value": "inhibited"}, {"measurement": "IGF-1 induced phosphorylation of Akt at Ser473 and p70S6K at Thr389", "setting": "[2]; FTS 100 μM or LY 294002 20 μM, IGF-1 20 ng/ml 10 min", "value": "no effect"}, {"measurement": "amount of endogenous raptor that coimmunoprecipitated with mTOR", "setting": "mTOR-raptor complex", "value": "markedly decreased"}, {"measurement": "animal weight", "setting": "[3]", "value": "does not cause a reduction of animal weight"}, {"measurement": "toxicity", "setting": "[3]", "value": "non-toxic"}]}]}
